Measured values taken from patent US12678510B2, “Drug loaded peptide brush polymers” (priority 2020, dated 2026).
Peptide text beside a SMILES is read from it. * marks the point of attachment. X1 = O=C1C2C3C=CC(C3)C2C(=O)N1CC(=O)*

Tested on: pronase
Assay: Proteolytic degradation assay with pronase (RP-HPLC, MALDI-TOF-MS)
Assay type: in vitro ADME
Conditions: Streptomyces griseus, pronase (isolated proteolytic enzyme) in DPBS; pronase 0.35 U/mL in DPBS, 37° C., 50 μM peptide, after 3 hours; read-out: peptide cleavage
Protocol: The stability of drug delivery systems serves as a basis for enhancing half-life of therapeutic cargos during the course of delivery to targeted areas. To evaluate the stability of peptide brush polymers, positively charged poly(GGSGSGK) and its single peptide analogue GGSGSGK were treated with pronase, a robust proteolytic enzyme isolated from the extracellular fluid of Streptomyces griseus. RP-HPLC and MALDI-TOF mass spectroscopy were used to quantify the cleavage of peptides (FIGS. 30-33). As expected, the peptide underwent rapid degradation in the presence of pronase, resulting in approximately 75% peptide cleavage after 3 hours.
Monomer Nor-GGSGSGK and polymer Poly(GGSGSGK) (50 μM, with respect to peptide concentration) were treated with pronase (0.35 U/mL) in DPBS at 37° C. After treatment, the enzyme was heat denatured at 65° C. for 15 min.

NCCCC[C@H](NC(=O)CNC(=O)[C@H](CO)NC(=O)CNC(=O)[C@H](CO)NC(=O)CNC(=O)CN1C(=O)C2C3C=CC(C3)C2C1=O)C(N)=O (stereo partly shown) [GGSGSGK] (X1-GSGSGK-NH2; N-terminus assumed)
metabolised at 3 h, 50 μM: ~75%
